Test results published in patent US7589186B2, “Isolated hOAT polynucleotide” (priority 1998, dated 2009).

B1: hOAT (Homo sapiens) (protein)
chain: MAFNDLLQQVGGVGRFQQIQVTLVVLPLLLMASHNTLQNFTAAIPTHHCRPPADANLSKNGGLEVWLPRDRQGQPESCLRFTSPQWGLPFLNGTEANGTGATEPCTDGWIYDNSTFPSTIVTEWDLVCSHRALRQLAQSLYMVGVLLGAMVFGYLADRLGRRKVLILNYLQTAVSGTCAAFAPNFPIYCAFRLLSGMALAGISLNCMTLNVEWMPIHTRACVGTLIGYVYSLGQFLLAGVAYAVPHWRHLQLLVSAPFFAFFIYSWFFIESARWHSSSGRLDLTLRALQRVARINGKREEGAKLSMEVLRASLQKELTMGKGQASAMELLRCPTLRHLFLCLSMLWFATSFAYYGLVMDLQGFGVSIYLIQVIFGAVDLPAKLVGFLVINSLGRRPAQMAALLLAGICILLNGVIPQDQSIVRTSLAVLGKGCLAASFNCIFLYTGELYPTMIRQTGMGMGSTMARVGSIVSPLVSMTAELYPSMPLFIYGAVPVAASAVTVLLPETLGQPLPDTVQDLESRKGKQTRQQQEHQKYMVPLQASAQEKNGL

Experiments:
hOAT = hOAT (Homo sapiens, UniProt Q4U2R8); assay: Uptake of antiviral nucleotides (ADV, CDV, cCDV) in CHO-hOAT versus CHO cells; conditions: for accumulation in CHO-hOAT (in words) / Vmax of uptake by CHO-hOAT: CHO-hOAT cells
Protocol: pIRES-hOAT plasmid was transfected into CHO-K1 cells (ATCC CCL61) growing in F-12 nutrient mixture supplemented with 10% fetal bovine serum, 100 U/ml penicillin, and 100 μg/ml streptomycin. 24 hours before transfection, approximately 6×10^6 CHO-K1 cells were seeded into 100-mm Petri dish. At the time of transfection, media was aspirated and 6 ml of fresh media containing 12 μg of pIRES-hOAT and 60 μg of Cytofectin GSV cationic lipid (Glen Research, Sterling, Va.) was added to the cells. Following overnight incubation, selection of stable transformants started in phenol red-free F-12 nutrient mixture containing fetal bovine serum, penicillin and streptomycin as above, plus 1 mg/ml G418 (CLONTECH). […] For the PAH uptake assay, the cells were seeded into 12-well plates at the density of 2×10^5 cell/well. After 48 hours, growth media was aspirated and the cells were washed twice with phosphate buffered saline (PBS). […] After 90 min incubation at 37° C. in the transport buffer, the cells were washed 3-times with ice-cold PBS (2 ml/well) and lysed directly on the plate in the presence of 0.3% Triton X-100 (0.5 ml/well) for 20 min at room temperature. Plates were washed with additional 0.5 ml/well of Triton X-100, the lysate and wash were combined, scintillation fluid was added, and the radioactivity counted.
(§1) Uptake and cytotoxicity of ADV in the two cell lines was compared.

CHO-hOAT cells = assay: Cytotoxicity in CHO-hOAT compared to CHO cells; type: cell-based, Chinese hamster; conditions: for fold more cytotoxic in CHO-hOAT compared to CHO cells: without probenecid
Excerpt: as §1

[1] = substrate: Nc1ncnc2c1ncn2CCOCP(=O)(O)O; assay: cells, lysate or membranes; conditions: other: CHO-hOAT cells; pH 7.2; 37.0 °C
Protocol: (§2) pIRES-hOAT plasmid was transfected into CHO-K1 cells (ATCC CCL61) growing in F-12 nutrient mixture supplemented with 10% fetal bovine serum, 100 U/ml penicillin, and 100 μg/ml streptomycin. 24 hours before transfection, approximately 6×10^6 CHO-K1 cells were seeded into 100-mm Petri dish. At the time of transfection, media was aspirated and 6 ml of fresh media containing 12 μg of pIRES-hOAT and 60 μg of Cytofectin GSV cationic lipid (Glen Research, Sterling, Va.) was added to the cells. Following overnight incubation, selection of stable transformants started in phenol red-free F-12 nutrient mixture containing fetal bovine serum, penicillin and streptomycin as above, plus 1 mg/ml G418 (CLONTECH). […] For the PAH uptake assay, the cells were seeded into 12-well plates at the density of 2×10^5 cell/well. After 48 hours, growth media was aspirated and the cells were washed twice with phosphate buffered saline (PBS). […] Plates were washed with additional 0.5 ml/well of Triton X-100, the lysate and wash were combined, scintillation fluid was added, and the radioactivity counted.

[2] = substrate: Nc1ccn(C[C@@H](CO)OCP(=O)(O)O)c(=O)n1; assay: cells, lysate or membranes; conditions: other: CHO-hOAT cells; pH 7.2; 37.0 °C
Protocol: as §2

Row | Molecule | accumulation in CHO-hOAT (in words) (hOAT) | Vmax of uptake by CHO-hOAT (hOAT) | fold more cytotoxic in CHO-hOAT compared to CHO cells (CHO-hOAT cells) | other results
1 | Nc1ccn(C[C@H]2COP(=O)(O)CO2)c(=O)n1 [cCDV] | not | – | – | increase of cytotoxicity in CHO-hOAT cells (in words) (CHO-hOAT cells): increased to much lesser extent
2 | Nc1ccn(C[C@@H](CO)OCP(=O)(O)O)c(=O)n1 [CDV, cidofovir] | efficiently accumulated | 1,110 pmol/10^6 cells | > 400 fold | effect of PBC on cytotoxicity (in words) (CHO-hOAT cells; CHO-hOAT cells, with PBC): significantly reduced by PBC
3 | Nc1ncnc2c1ncn2CCOCP(=O)(O)O [ADV, Adefovir] | – | 390 pmol/10^6 cells | ~500 fold | accumulation in CHO-hOAT compared to CHO (hOAT; CHO-hOAT vs CHO cells): > 300 fold; fold more susceptible CHO-hOAT than CHO in the presence of PBC (CHO-hOAT cells; in the presence of 1 mM PBC): 3 fold
4 | B1 | – | – | – | Km [1]: 23 µM; Km [2]: 70 µM
